Experiment [1] deals with T1, human M4 receptor (Homo sapiens, UniProt P08173).
T1 sequence (P08173 1-479): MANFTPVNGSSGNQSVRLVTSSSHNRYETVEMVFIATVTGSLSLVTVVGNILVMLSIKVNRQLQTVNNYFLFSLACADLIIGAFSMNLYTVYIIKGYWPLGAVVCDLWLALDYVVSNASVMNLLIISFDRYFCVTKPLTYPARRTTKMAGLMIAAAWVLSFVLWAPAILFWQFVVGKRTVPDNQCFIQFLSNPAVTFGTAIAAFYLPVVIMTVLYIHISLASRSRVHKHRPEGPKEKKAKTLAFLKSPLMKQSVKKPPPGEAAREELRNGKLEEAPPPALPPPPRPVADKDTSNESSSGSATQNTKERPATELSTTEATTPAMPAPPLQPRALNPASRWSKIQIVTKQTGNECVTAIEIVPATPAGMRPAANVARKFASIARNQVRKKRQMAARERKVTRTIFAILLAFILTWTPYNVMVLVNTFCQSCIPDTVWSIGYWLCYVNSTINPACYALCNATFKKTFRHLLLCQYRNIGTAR
The experiment in a line: Calcium flux assay using fluorescent imaging (M4 PAM FLIPR assay). The experiment is classed as cell-based. More on the design: expressed in transfected cells; host or cells: CHO (monoclonal line, clone 2). As to conditions: Table 1; CHO cells expressing human M4+Gqi5; acetylcholine EC20. Here is the method:
CHO cells were transfected with expression plasmid encoding the human M4 receptor and a Gqi5 construct to redirect Gi signaling to calcium. Stable cells were cloned by limiting dilution to yield a monoclonal cell line expressing human M4+Gqi5 (clone 2). The stable cells were grown in DMEM containing 10% FBS, 200 ug/ml Geneticin and 800 ug/ml Hygromycin at 37° C. in a 10% CO2 incubator at 95% humidity.
Calcium Flux Assay Using Fluorescent Imaging (“M4 PAM FLIPR” Assay)
On the afternoon before the assay, cells were plated at a density of 50,000 cells/well into black 96 well plates with clear bottoms to yield a confluent monolayer the next day. Hanks balanced salt solution, without phenol red, containing 20 mM HEPES (pH 7.3) and 2.5 mM probenecid (assay buffer) was prepared fresh for each experiment. Compound dilutions were made using a Beckman Biomek 2000 laboratory automation workstation, in assay buffer. The dye-loading buffer consisted of a final concentration of 2 μM Fluo-4-AM (dissolved in DMSO and pluronic acid) and 65 μg/ml amidoblack in assay buffer. The existing culture media was removed from the wells and 100 μl of the dye-loading buffer was added to each well and incubated for approximately 90 min at 37° C. in a 5% CO2 incubator at 95% humidity.
Calcium flux in the dye-loaded cells was measured with the fluorescence reader Hamamatsu FDSS 7000. To test compounds as agonists, compound addition (25 μl) was made 10 s into the fluorescent measurements and fluorescent response was recorded for 3 minutes. The fluorescence data was expressed as percentage of the fluorescence obtained by an EC100 concentration (3 μM) of the endogenous full agonist acetylcholine. Each test compound concentration-response curve was constructed using a four parameter logistic equation in Microsoft Excel XLFit as follows:
Y=Minimum+((Maximum−Minimum)/(1+10^(LogEC50−X)nH)).
The concentration of agonist that produced a half-maximal response is represented by the EC50 value. Maximum and minimum are the maximum and minimum fluorescence signal in % respectively. nH is the Hill slope.
To measure positive allosteric modulator activity 25 μl of an EC20 concentration of the endogenous agonist acetylcholine is added to the cells already pre-incubated with the test compound for 15 minutes.
The M4 PAM dose response is constructed using the agonist dose-response equation above. The concentration of PAM that produced a half-maximal response is represented by the EC50 value and the maximum signal measured is the PAM efficacy expressed in % of the EC100 (3 μM) acetylcholine response. • cAMP Assay for M4 Positive Allosteric Modulators (“M4 PAM cAMP” Assay)

Experiment [2] addresses T1, human M4 receptor. The experiment in a line: cAMP assay for M4 positive allosteric modulators (M4 PAM cAMP assay). The experiment is classed as cell-based. More on the design: expressed in transfected cells; host or cells: CHO-K1. As to conditions: Table 1; CHO-K1 cells expressing human M4; forskolin 7.5 μM + acetylcholine EC20 (0.2 nM). Here is the method:
The potency of M4 PAMs was determined using a cell-based cyclic adenosine monophosphate assay. The assay was performed with CHO-Kl cells stably expressing untagged human M4 receptor and cAMP was quantified using the Nano-TRF Detection Assay kit (Roche, Cat. No. 05214386) as described in the kit instructions. The cells were grown in Ham's F-12 Nutrient mix supplemented with 10% FBS and 200 μg/ml geneticin until they reached 80% confluency. The cells were washed with PBS, detached with accutase and resuspended in assay buffer consisting of HBSS and 0.1% BSA. They were then seeded in black 384-well plates (Corning, Cat. No. 3764) at a density of 20,000 cells/20 μl per well until the addition of compounds.
Test compounds were serially diluted 1:2 in 100% DMSO and spotted in 384-well plates at 0.5 μl/well. The compounds were then diluted in water containing IBMX (Sigma, Cat. No. 17018) and a sample (5 μl) was added to the cells for 15 minutes at 37° C./5% CO2. After this incubation the cells were stimulated with a combination of forskolin (7.5 μM) and acetylcholine EC20 (0.2 nM) in assay buffer for 30 minutes at 37° C./5% CO2. The assay was stopped by adding cAMP detection mix (15 μl/well, containing detergents for cell lysis) for one hour at RT.
The test plates were read using a SpectraMax i3x reader (Molecular Devices). The exported raw data was used to calculate the FRET signal based on the P-factor as per cAMP kit instructions. The data was normalized to the activity of acetylcholine plus forskolin, with 2 nM of acetylcholine plus 7.5 μM forskolin defined as 100% activity. Dose response curves were fitted to the percent activity data of the compounds using a sigmoidal dose response model (XLfit, IDBS) and the data were reported as EC50 and percent efficacy.

The structures appear in SMILES notation.

In the case of `CNc1ccc(N2CC[C@@H](C(=O)N3Cc4nc(C)c(Cl)c(C)c4C3)C2)cn1` [Example 11, (3-chloro-2,4-dimethyl-5,7-dihydropyrrolo[3,4-b]pyridin-6-yl)-[(3R)-1-[6-(methylamino)-3-pyridyl]pyrrolidin-3-yl]methanone], the half-maximal effective concentration (EC50) in experiment [1] stood at 1360 nM; in experiment [2], 446 nM.

For the compound `Cc1cncc(N2CC[C@@H](C(=O)N3Cc4nc(C)c(Cl)c(C)c4C3)C2)n1` [Example 51, (3-chloro-2,4-dimethyl-5,7-dihydropyrrolo[3,4-b]pyridin-6-yl)-[(3R)-1-(6-methylpyrazin-2-yl)pyrrolidin-3-yl]methanone], the EC50 in experiment [1] is 363 nM; in experiment [2], 591 nM.

Turning to `Cc1nc2c(c(C)c1Cl)CN(C(=O)[C@@H]1CCN(c3ccnnc3)C1)C2` [Example 38, (3-chloro-2,4-dimethyl-5,7-dihydropyrrolo[3,4-b]pyridin-6-yl)-[(3R)-1-pyridazin-4-ylpyrrolidin-3-yl]methanone], the EC50 was determined as 274 nM in experiment [1] and 332 nM in experiment [2].

On to `Cc1nc2c(c(C)c1Cl)CN(C(=O)[C@@H]1CCN(c3ccnc(C4CC4)n3)C1)C2` [Example 6, (3-chloro-2,4-dimethyl-5,7-dihydropyrrolo[3,4-b]pyridin-6-yl)-[(3R)-1-(2-cyclopropylpyrimidin-4-yl)pyrrolidin-3-yl]methanone], for which the half-maximal effective concentration (EC50) was 931 nM in experiment [1] and 3780 nM in experiment [2].

As to `Cc1cnc(N2CC[C@@H](C(=O)N3Cc4nc(C)c(Cl)c(C)c4C3)C2)cn1` [Example 46, (3-chloro-2,4-dimethyl-5,7-dihydropyrrolo[3,4-b]pyridin-6-yl)-[(3R)-1-(5-methylpyrazin-2-yl)pyrrolidin-3-yl]methanone], the half-maximal effective concentration (EC50) in experiment [1] came to 611 nM; in experiment [2] it was 814 nM.

With `COc1cnc(N2CC[C@@H](C(=O)N3Cc4nc(C)c(Cl)c(C)c4C3)C2)cn1` [Example 45, (3-chloro-2,4-dimethyl-5,7-dihydropyrrolo[3,4-b]pyridin-6-yl)-[(3R)-1-(5-methoxypyrazin-2-yl)pyrrolidin-3-yl]methanone], the EC50 was found to be 804 nM in experiment [1] and 1370 nM in experiment [2].

Take `Cc1cnc(N2CC[C@@H](C(=O)N3Cc4nc(C)c(Cl)c(C)c4C3)C2)nc1` [Example 8, (3-chloro-2,4-dimethyl-5,7-dihydropyrrolo[3,4-b]pyridin-6-yl)-[(3R)-1-(5-methylpyrimidin-2-yl)pyrrolidin-3-yl]methanone]: the EC50 in experiment [1] worked out at 2350 nM; in experiment [2], 5270 nM.

`Cc1nc2c(c(C)c1Cl)CN(C(=O)[C@@H]1CCN(c3cncc(C4CC4)n3)C1)C2` [Example 43, (3-chloro-2,4-dimethyl-5,7-dihydropyrrolo[3,4-b]pyridin-6-yl)-[(3R)-1-(6-cyclopropylpyrazin-2-yl)pyrrolidin-3-yl]methanone]: the 50% effective concentration (EC50) in experiment [1] was 1210 nM; in experiment [2] it was 7290 nM.

`Cc1nc2c(c(C)c1Cl)CN(C(=O)[C@@H]1CCN(c3ccnc(C(F)(F)F)n3)C1)C2` [Example 23, (3-chloro-2,4-dimethyl-5,7-dihydropyrrolo[3,4-b]pyridin-6-yl)-[(3R)-1-[2-(trifluoromethyl)pyrimidin-4-yl]pyrrolidin-3-yl]methanone]: the EC50 in experiment [1] is 907 nM; in experiment [2], 791 nM.

As to `Cc1ccc(N2CC[C@@H](C(=O)N3Cc4nc(C)c(Cl)c(C)c4C3)C2)nn1` [Example 40, (3-chloro-2,4-dimethyl-5,7-dihydropyrrolo[3,4-b]pyridin-6-yl)-[(3R)-1-(6-methylpyridazin-3-yl)pyrrolidin-3-yl]methanone], the values for the concentration giving a half-maximal response (EC50) in experiment [1] and in experiment [2] were 1290 nM and 1990 nM, respectively.

Regarding `Cc1cc(N2CC[C@@H](C(=O)N3Cc4nc(C)c(Cl)c(C)c4C3)C2)ncn1` [Example 26, (3-chloro-2,4-dimethyl-5,7-dihydropyrrolo[3,4-b]pyridin-6-yl)-[(3R)-1-(6-methylpyrimidin-4-yl)pyrrolidin-3-yl]methanone], the EC50 in experiment [1] stood at 166 nM; in experiment [2], 120 nM.

`COc1cncc(N2CC[C@@H](C(=O)N3Cc4nc(C)c(Cl)c(C)c4C3)C2)n1` [Example 42, (3-chloro-2,4-dimethyl-5,7-dihydropyrrolo[3,4-b]pyridin-6-yl)-[(3R)-1-(6-methoxypyrazin-2-yl)pyrrolidin-3-yl]methanone]: the results for the EC50 in experiment [1] and in experiment [2] were 577 nM and 2080 nM, respectively.

Regarding `Cc1cc(N2CC[C@@H](C(=O)N3Cc4nc(C)c(Cl)c(C)c4C3)C2)ccn1` [Example 5, (3-chloro-2,4-dimethyl-5,7-dihydropyrrolo[3,4-b]pyridin-6-yl)-[(3R)-1-(2-methyl-4-pyridyl)pyrrolidin-3-yl]methanone], the concentration giving a half-maximal response (EC50) is 490 nM in experiment [1] and 616 nM in experiment [2].

For the compound `Cc1nc2c(c(C)c1Cl)CN(C(=O)[C@@H]1CCN(c3cc(C4CC4)ncn3)C1)C2` [Example 28, (3-chloro-2,4-dimethyl-5,7-dihydropyrrolo[3,4-b]pyridin-6-yl)-[(3R)-1-(6-cyclopropylpyrimidin-4-yl)pyrrolidin-3-yl]methanone], the results for the concentration for a half-maximal effect (EC50) in experiment [1] and in experiment [2] were 350 nM and 259 nM, respectively.

Consider `Cc1nc2c(c(C)c1Cl)CN(C(=O)[C@@H]1CCN(c3cncc(C4CC4)c3)C1)C2` [Example 16, (3-chloro-2,4-dimethyl-5,7-dihydropyrrolo[3,4-b]pyridin-6-yl)-[(3R)-1-(5-cyclopropyl-3-pyridyl)pyrrolidin-3-yl]methanone], for which the results for the EC50 in experiment [1] and in experiment [2] were 816 nM and 3640 nM, respectively.

Regarding `Cc1ncc(N2CC[C@@H](C(=O)N3Cc4nc(C)c(Cl)c(C)c4C3)C2)cn1` [Example 31, (3-chloro-2,4-dimethyl-5,7-dihydropyrrolo[3,4-b]pyridin-6-yl)-[(3R)-1-(2-methylpyrimidin-5-yl)pyrrolidin-3-yl]methanone], the 50% effective concentration (EC50) stood at 388 nM in experiment [1] and 482 nM in experiment [2].

As to `Cc1nc2c(c(C)c1Cl)CN(C(=O)[C@@H]1CCN(c3cncnc3)C1)C2` [Example 30, (3-chloro-2,4-dimethyl-5,7-dihydropyrrolo[3,4-b]pyridin-6-yl)-[(3R)-1-pyrimidin-5-ylpyrrolidin-3-yl]methanone], the EC50 was determined as 59 nM in experiment [1] and 65 nM in experiment [2].

Values taken from patent publication US20220289746A1, “PYRROLIDINE DERIVATIVES” (Hoffmann-La Roche Inc., priority 2019, published 2022).
